Laboratory results from ChEMBL document CHEMBL5506004, “Optimizing drug-like properties of selective butyrylcholinesterase inhibitors for cognitive improvement: Enhancing aqueous solubility by disrupting molecular plane” (Eur J Med Chem, 2024).
Converted amounts (≈) assume the structure as drawn. The source made the active and inactive calls. No cut-off for these calls is given here.

Tests used:
Cholinesterase [1] = biological target: Cholinesterase (Equus caballus, UniProt P81908); test: Inhibition of horse serum BChE using BTC iodide as substrate preincubated for 5 mins followed by substrate addition measured after 2 mins by Ellman's method
[2] = Solubility of compound in FaSSIF incubated for 24 hrs by HPLC analysis; type: ADME
[3] = Tmax in Sprague-Dawley rat at 10 mg/kg, po measured for 1 to 1440 mins by LC-MS/MS analysis; type: ADME, organism-based; conditions: in vivo, time 1-1440 min
Mus musculus [4] = test: Cognitive enhancing effect in Amyloid beta (1 to 42)-treated ICR mouse assessed as reduction in trajectory uncertainty at 10 mg/kg, po administered daily measured after 7 to 12 days by Morris water maze test; type: functional, organism-based; conditions: time 7-12 day
Mus musculus [5] = test: Cognitive enhancing effect in Amyloid beta (1 to 42)-treated ICR mouse assessed as shorter arrival time at 10 mg/kg, po administered daily measured after 7 to 12 days by Morris water maze test; type: functional, organism-based; conditions: time 7-12 day
Cholinesterase [6] = biological target: Cholinesterase (Homo sapiens, UniProt P06276); test: Inhibition of human BChE using BTC iodide as substrate preincubated for 5 mins followed by substrate addition measured after 2 mins by Ellman's method
BV-2 [7] = test: Cytotoxicity against mouse BV-2 cells assessed as survival rate at 100 uM incubated for 24 hrs by MTT assay relative to control; type: functional; conditions: read-out: Survival
HT-22 [8] = test: Cytotoxicity against mouse HT-22 cells assessed as survival rate at 100 uM incubated for 24 hrs by MTT assay relative to control; type: functional; conditions: read-out: Survival
PC-12 [9] = test: Cytotoxicity against rat PC12 cells assessed as survival rate at 100 uM incubated for 24 hrs by MTT assay relative to control; type: functional; conditions: read-out: Survival
SH-SY5Y [10] = test: Cytotoxicity against human SH-SY5Y cells assessed as survival rate at 100 uM incubated for 24 hrs by MTT assay relative to control; type: functional; conditions: read-out: Survival
[11] = Cytotoxicity against human L02 cells assessed as survival rate at 100 uM incubated for 24 hrs by MTT assay relative to control; type: toxicity, cell-based; conditions: read-out: Survival
[12] = Acute toxicity in ICR mouse assessed as animal death at 1 g/kg, IG; conditions: in vivo, po, 1000 mg/kg
[13] = Acute toxicity in ICR mouse assessed as animal growth at 1 g/kg, IG; conditions: in vivo, po, 1000 mg/kg
PC-12 [14] = test: Neuroprotective activity in rat PC12 cells assessed as cell viability pretreated for 2 hrs followed by H2O2 addition measured after 24 hrs by MTT assay; type: functional, cell-based; conditions: time 26.0 hrs
SH-SY5Y [15] = test: Neuroprotective activity against amyloid beta (1 to 42)-induced neuronal death in human SH-SY5Y cells assessed as cell viability pretreated for 1 hr followed by amyloid beta (1 to 42) addition measured after 24 hrs by MTT assay; type: functional, cell-based; conditions: dose 1-10 µM, time 25.0 hrs
[16] = Metabolic stability in human liver microsomes assessed as compound metabolism at 2 uM measured for 60 mins by LC-MS/MS analysis; type: ADME, Microsome; conditions: read-out: Drug metabolism
[17] = Permeability of compound at 50 ug/ml incubated for 18 hrs by PAMPA; type: ADME; conditions: dose 50 µg/ml, read-out: permeability
[18] = Metabolic stability in human liver microsomes assessed as compound remaining at 2 uM measured after 12.8 mins by LC-MS/MS analysis; type: ADME, Microsome; conditions: read-out: Activity
BV-2 [19] = test: Cytotoxicity against mouse BV-2 cells assessed as survival rate incubated for 24 hrs by MTT assay; type: functional, cell-based; conditions: BV-2, 24 h
SH-SY5Y [20] = test: Cytotoxicity against human SH-SY5Y cells assessed as survival rate incubated for 24 hrs by MTT assay; type: functional, cell-based
HT-22 [21] = test: Neuroprotective activity against glutamate-induced excitotoxicity in mouse HT-22 cells assessed as cell viability at 1 to 10 uM pretreated for 1 hr followed by glutamate addition measured after 24 hrs by MTT assay; type: functional, cell-based; conditions: dose 1-10 µM, time 25.0 hrs
[22] = AUC (0 to t) in Sprague-Dawley rat at 10 mg/kg, po measured for 1 to 1440 mins by LC-MS/MS analysis; type: ADME, organism-based; conditions: in vivo, time 1-1440 min
[23] = AUC (0 to infinity) in Sprague-Dawley rat at 10 mg/kg, po measured for 1 to 1440 mins by LC-MS/MS analysis; type: ADME, organism-based; conditions: in vivo, time 1-1440 min
[24] = MRT (infinity) in Sprague-Dawley rat at 10 mg/kg, po measured for 1 to 1440 mins by LC-MS/MS analysis; type: ADME, organism-based; conditions: in vivo, time 1-1440 min
[25] = Half life in Sprague-Dawley rat at 10 mg/kg, po measured for 1 to 1440 mins by LC-MS/MS analysis; type: ADME, organism-based; conditions: in vivo, time 1-1440 min
[26] = Cmax in Sprague-Dawley rat at 10 mg/kg, po measured for 1 to 1440 mins by LC-MS/MS analysis; type: ADME, organism-based; conditions: in vivo, po, 10 mg/kg, time 1-1440 min
[27] = Oral bioavailability in Sprague-Dawley rat at 10 mg/kg measured for 1 to 1440 mins by LC-MS/MS analysis; type: ADME, organism-based; conditions: in vivo, time 1-1440 min

Chain of Cholinesterase (Homo sapiens, UniProt P06276) (P06276 whole entry): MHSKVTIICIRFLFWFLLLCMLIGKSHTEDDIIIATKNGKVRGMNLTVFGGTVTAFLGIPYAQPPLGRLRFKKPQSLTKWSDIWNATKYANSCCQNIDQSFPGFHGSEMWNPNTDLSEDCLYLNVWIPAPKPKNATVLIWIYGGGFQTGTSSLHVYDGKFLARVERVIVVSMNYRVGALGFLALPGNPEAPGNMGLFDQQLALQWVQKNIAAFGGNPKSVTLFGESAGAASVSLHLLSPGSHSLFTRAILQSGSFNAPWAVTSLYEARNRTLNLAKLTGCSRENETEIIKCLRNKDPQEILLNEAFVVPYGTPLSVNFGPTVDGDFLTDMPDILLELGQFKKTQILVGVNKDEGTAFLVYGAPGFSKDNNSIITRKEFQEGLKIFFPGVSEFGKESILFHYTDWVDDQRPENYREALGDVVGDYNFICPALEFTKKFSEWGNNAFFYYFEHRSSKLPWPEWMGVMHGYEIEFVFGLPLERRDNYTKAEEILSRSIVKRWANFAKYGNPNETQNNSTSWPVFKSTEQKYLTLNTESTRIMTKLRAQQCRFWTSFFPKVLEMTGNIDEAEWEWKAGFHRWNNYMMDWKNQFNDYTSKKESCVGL
Chain of Cholinesterase (Equus caballus, UniProt P81908) (P81908 whole entry): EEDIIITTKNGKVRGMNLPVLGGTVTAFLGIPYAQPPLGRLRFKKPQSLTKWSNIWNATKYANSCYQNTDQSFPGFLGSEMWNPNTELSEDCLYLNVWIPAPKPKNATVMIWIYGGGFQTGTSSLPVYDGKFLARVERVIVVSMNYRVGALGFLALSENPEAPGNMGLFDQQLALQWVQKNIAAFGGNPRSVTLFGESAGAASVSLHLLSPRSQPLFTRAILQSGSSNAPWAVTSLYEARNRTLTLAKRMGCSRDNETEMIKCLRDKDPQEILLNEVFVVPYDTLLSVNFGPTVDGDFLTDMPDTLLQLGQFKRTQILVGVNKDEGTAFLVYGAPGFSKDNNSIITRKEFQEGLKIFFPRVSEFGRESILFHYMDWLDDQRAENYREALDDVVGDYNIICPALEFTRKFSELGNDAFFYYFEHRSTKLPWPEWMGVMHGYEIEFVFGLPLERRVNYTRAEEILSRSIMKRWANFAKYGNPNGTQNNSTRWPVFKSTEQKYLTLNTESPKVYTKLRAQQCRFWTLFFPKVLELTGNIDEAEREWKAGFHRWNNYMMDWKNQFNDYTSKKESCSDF

| SMILES | IC50 (Cholinesterase [1]) | solubility at 24 h [2] | other results |
| --- | --- | --- | --- |
| Nc1nonc1-c1nc2ccccc2n1CC(=O)NC1CCCCC1 | 3520 nM | 232 µM (≈ 79 µg/mL) | – |
| CN1CCN(C(=O)c2ccc(NC(=O)Cn3c(-c4nonc4N)nc4ccccc43)cc2)CC1 | 84 nM | 1020 µM (≈ 471 µg/mL) | – |
| Nc1nonc1-c1nc2ccccc2n1CC(=O)Nc1ccccn1 | 1320 nM | 322 µM (≈ 108 µg/mL) | – |
| Nc1nonc1-c1nc2ccccc2n1CC(=O)Nc1cncc(F)c1 | 99.4 nM | 512 µM (≈ 181 µg/mL) | – |
| Nc1nonc1-c1nc2ccccc2n1CC(=O)Nc1ccccc1N1CCOCC1 | 2470 nM | 536 µM (≈ 225 µg/mL) | – |
| Nc1nonc1-c1nc2ccccc2n1CC(=O)Nc1cnc2ccccc2c1 | – | 231 µM (≈ 89 µg/mL) | Tmax [3]: 0.158 h |
| COc1cc2c(cc1OC)C(=O)C(CC1CCN(Cc3ccccc3)CC1)C2 (configuration not stated) | – | – | Activity (Mus musculus [4]): Active; Activity (Mus musculus [5]): Active |
| CN1CCN(C(=O)Cc2ccc(NC(=O)Cn3c(-c4nonc4N)nc4ccccc43)cc2)CC1 | 609 nM | 1770 µM (≈ 842 µg/mL) | – |
| Nc1nonc1-c1nc2ccccc2n1CC(=O)Nc1ccncc1 | 172 nM | 474 µM (≈ 159 µg/mL) | – |
| Nc1nonc1-c1nc2ccccc2n1CC(=O)Nc1ccc(C(=O)N2CCOCC2)cc1 | 67 nM | 467 µM (≈ 209 µg/mL) | – |
| CN1CCN(c2ccccc2NC(=O)Cn2c(-c3nonc3N)nc3ccccc32)CC1 | 524 nM | 483 µM (≈ 209 µg/mL) | – |
| Nc1nonc1-c1nc2ccccc2n1CC(=O)Nc1ccc(CN2CCOCC2)cc1 | 14 nM | 3050 µM (≈ 1320 µg/mL) | IC50 (Cholinesterase [6]): 106 nM; viability at 100 µM (BV-2 [7]): 78.2%; viability at 100 µM (HT-22 [8]): 66.5%; viability at 100 µM (PC-12 [9]): 101%; viability at 100 µM (SH-SY5Y [10]): 131%; viability at 24 h, 100 µM [11]: 114%; Activity [12]: Non-Toxic; Activity [13]: Non-Toxic; Activity (PC-12 [14]): Dose-Dependent Effect; Activity (SH-SY5Y [15]): Dose-Dependent Effect; metabolised at 1 h, 2 µM [16]: < 15%; Papp at 18 h, 50 ug/ml [17]: 5.38 ×10⁻⁶ cm/s |
| Nc1nonc1-c1nc2ccccc2n1CC(=O)Nc1cccc(N2CCCC2)c1 | 5.57 nM | 104 µM (≈ 42 µg/mL) | IC50 (Cholinesterase [6]): 2.26 nM |
| C[C@]12CC[C@H]3[C@@H](CCC4=CC(=O)CC[C@@]43C)[C@@H]1CC[C@@H]2O [TESTOSTERONE] | – | – | remaining at 0.2133 h, 2 µM [18]: 50% |
| CN1CCN(Cc2ccc(NC(=O)Cn3c(-c4nonc4N)nc4ccccc43)cc2)CC1 | 99.8 nM | 2660 µM (≈ 1190 µg/mL) | – |
| Nc1nonc1-c1nc2ccccc2n1CC(=O)Nc1cncc(Br)c1 | 15.4 nM | 476 µM (≈ 197 µg/mL) | IC50 (Cholinesterase [6]): 119 nM |
| CN1CCN(c2ccc(NC(=O)Cn3c(-c4nonc4N)nc4ccccc43)cc2)CC1 | 92.3 nM | 1360 µM (≈ 588 µg/mL) | – |

| SMILES | IC50 (Cholinesterase [1]) | solubility at 24 h [2] | other results |
| --- | --- | --- | --- |
| Nc1nonc1-c1nc2ccccc2n1CC(=O)Nc1ccc(CC(=O)N2CCOCC2)cc1 | 123 nM | 951 µM (≈ 439 µg/mL) | – |
| Nc1nonc1-c1nc2ccccc2n1CC(=O)Nc1cccc(N2CCOCC2)c1 | 49.5 nM | 1270 µM (≈ 534 µg/mL) | – |
| COC(=O)c1cncc(NC(=O)Cn2c(-c3nonc3N)nc3ccccc32)c1 | 43 nM | 211 µM (≈ 83 µg/mL) | – |
| Nc1nonc1-c1nc2ccccc2n1CC(=O)Nc1ccc(N2CCCCC2)cc1 | 168 nM | 86.2 µM (≈ 36 µg/mL) | – |
| Nc1c2c(nc3ccccc13)CCCC2 [TACRINE] | – | 1440 µM (≈ 285 µg/mL) | – |
| COC(=O)c1ccnc(NC(=O)Cn2c(-c3nonc3N)nc3ccccc32)c1 | 33.1 nM | 175 µM (≈ 68.8 µg/mL) | – |
| Nc1nonc1-c1nc2ccccc2n1CC(=O)Nc1cncc(C(F)(F)F)c1 | 94.5 nM | 660 µM (≈ 266 µg/mL) | – |
| Nc1nonc1-c1nc2ccccc2n1CC(=O)Nc1ccc(N2CCOCC2)cc1 | 481 nM | 861 µM (≈ 361 µg/mL) | – |
| Nc1nonc1-c1nc2ccccc2n1CC(=O)Nc1cncc(Cl)c1 | 31.6 nM | 462 µM (≈ 171 µg/mL) | – |
| Nc1nonc1-c1nc2ccccc2n1CC(=O)Nc1cccc(C(=O)O)c1 | 1970 nM | ≥ 5290 µM | – |
| CN1CCN(c2cccc(NC(=O)Cn3c(-c4nonc4N)nc4ccccc43)c2)CC1 | 19.4 nM | 2820 µM (≈ 1220 µg/mL) | IC50 (Cholinesterase [6]): 121 nM; viability at 100 µM (HT-22 [8]): 89.5%; viability at 100 µM (PC-12 [9]): 82.6%; viability at 24 h, 100 µM [11]: 102%; IC50 (BV-2 [19]): 17000 nM; IC50 (SH-SY5Y [20]): 10300 nM; Activity [12]: Non-Toxic; Activity [13]: Non-Toxic; Activity (PC-12 [14]): Dose-Dependent Effect; Activity (HT-22 [21]): Active; metabolised at 1 h, 2 µM [16]: < 15%; Papp at 18 h, 50 ug/ml [17]: 3.57 ×10⁻⁶ cm/s |
| Nc1nonc1-c1nc2ccccc2n1CC(=O)Nc1cccnc1 | 154 nM | 373 µM (≈ 125 µg/mL) | – |
| Nc1nonc1-c1nc2ccccc2n1CC(=O)Nc1cccc(N2CCCCC2)c1 | 4.71 nM | 74.3 µM (≈ 31 µg/mL) | IC50 (Cholinesterase [6]): 21.2 nM |
| Nc1nonc1-c1nc2ccccc2n1CC(=O)Nc1cccc(CC(=O)N2CCOCC2)c1 | 193 nM | 728 µM (≈ 336 µg/mL) | – |
| N#Cc1cc(Br)cc(NC(=O)Cn2c(-c3nonc3N)nc3ccccc32)c1 | – | 379 µM (≈ 166 µg/mL) | AUC(0-t) [22]: 3360 ng·h/mL; AUC(0-inf) [23]: 3780 ng·h/mL; MRT inf [24]: 7.37 h; half-life [25]: 4.74 h; Tmax [3]: 0.18 h; Cmax [26]: 975.05 ng/mL; bioavailability [27]: 23.6% |
| CN1CCN(C(=O)Cc2cccc(NC(=O)Cn3c(-c4nonc4N)nc4ccccc43)c2)CC1 | 1940 nM | 1330 µM (≈ 631 µg/mL) | – |
